Data published in patent US7605175B2, “Inhibitors of cyclin-dependent kinases, compositions and uses related thereto” (GPC Biotech AG, priority 2001, dated 2009).

How the values were obtained:
Details in all cases: Table 6
Cdc2/cyclin B = target: T1, Cdc2/cyclin B (Homo sapiens, UniProt P06493); assay: Biochemical kinase assay Cdc2/cyclin B
T1 construct: purchased
Excerpt: (§1) Enzymes: Cdc2/cyclin B was obtained from commercial sources. Cdk2/his-cyclin Eshort was expressed in Sf9 cells. Cdk2/cyclin A, cdk4/cyclin D1, and cdk6/cyclin D2 were expressed in Sf9 cells. Protein kinase A (catalytic subunit, from bovine heart) and protein kinase C (mixed isozymes from rat brain) were obtained from commercial sources.
(§2) Substrates: Histone H1 was from commercial sources. GST-Rb is glutathione-S-trans-ferase fused to the N-terminal of residues 379-928 of the Rb protein.
Assays: Cdc2/cyclinB activity was determined by measuring incorporation of radio-activity from adenosine [γ-^32P]triphosphate into Histone H1 using a TCA precipitation assay. Cdc2/cyclin B kinase and Histone H1 were obtained from commercial sources. The final assay solution contained 50 mM Tris.HCl, 10 mM MgCl2, 1 mM dithiothreitol, 50 μM adenosine triphosphate, 2 μCi ^32P, 10% dimethylsulfoxide (from compounds), pH 7.5, 20 μg Histone H1, 6 U enzyme in a 50 μL volume. Compounds were added at various concentrations between 1 nM and 10 μM. The reaction was started with the addition of enzyme, allowed to proceed for 20 min at 30° C., and stopped by the addition of 20 μL of stop solution (237 mM disodium ethylenediamine tetraacetate, 105 mM adenosine triphosphate, pH 8.0). The protein was precipitated by the addition of 35 μL 70% (w/v) trichloroacetic acid, and the precipitate was captured on a 96-well glass fiber filter plate (Millipore, Inc.), which had been wet with 25% (w/v) trichloroacetic acid. The filter was washed ten times with 25% (w/v) trichloroacetic acid, and the amount of incorporated ^32P was determined by scintillation counting after adding 100 μL scintillant (Microscint 20, Packard Instruments). Relative activity was determined by dividing the amount of radioactivity incorporated in the presence of compound by the amount of radioactivity incorporated in a control experiment containing DMSO alone but no compound. The background radioactivity, determined in an experiment containing 50 mM EDTA in place of compound, was subtracted from all results before calculations.

Cdk4/cyclin D1 = target: T2, Cdk4/cyclin D1 (Homo sapiens, UniProt P11802); assay: Biochemical kinase assay Cdk4/cyclin D1
T2 construct: made in house; host or cells: Sf9 insect cells
T2 sequence (P11802 whole entry, species assumed): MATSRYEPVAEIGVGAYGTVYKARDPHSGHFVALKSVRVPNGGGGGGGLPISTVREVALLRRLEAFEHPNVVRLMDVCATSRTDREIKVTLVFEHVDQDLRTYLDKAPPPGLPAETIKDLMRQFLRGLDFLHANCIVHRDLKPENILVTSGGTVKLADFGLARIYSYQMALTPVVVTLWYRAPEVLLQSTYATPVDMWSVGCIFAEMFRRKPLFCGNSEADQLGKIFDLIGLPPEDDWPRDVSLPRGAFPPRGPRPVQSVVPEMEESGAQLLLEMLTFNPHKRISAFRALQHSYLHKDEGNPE
T2 sequence (P24385 whole entry partner, species assumed): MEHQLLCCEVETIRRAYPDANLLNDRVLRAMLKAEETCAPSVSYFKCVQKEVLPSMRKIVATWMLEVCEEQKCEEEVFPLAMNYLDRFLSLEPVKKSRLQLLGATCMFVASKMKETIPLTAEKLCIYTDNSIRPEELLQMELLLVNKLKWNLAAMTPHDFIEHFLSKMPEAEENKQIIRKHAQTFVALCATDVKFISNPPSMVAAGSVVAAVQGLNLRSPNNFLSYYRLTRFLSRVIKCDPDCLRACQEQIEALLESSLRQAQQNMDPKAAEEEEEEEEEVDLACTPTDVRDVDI
Excerpt: as §1, §2
(§3) Cdk2/cyclin E, Cdk2/cyclin A, Cdk4/cyclin D1, and Cdk6/cyclin D2 activity was determined using a glutathione-sepharose capture assay. The enzymes were expressed in Sf9 insect cells as heterodimers, and the substrate (GST-Rb) was glutathione-S-transferase fused to residues 379 to 928 of Rb retinoblastoma protein, expressed in E. coli. The assay solution contained 50 mM Tris.HCl, 10 mM MgCl2, 1 mM dithiothreitol, 50 μM adenosine triphosphate, 2 μCi [γ-^33P]adenosine triphosphate, 10% dimethylsulfoxide (from compounds), pH 7.5, 40 μg GST-Rb, and enzyme in a 100 μL volume. Compounds were added at various concentrations between 1 nM and 10 μM. The reaction was allowed to proceed for 15 min at 30° C. and was stopped by the addition of 70 μL of stop solution (237 mM disodium ethylene-diamine tetraacetate, 105 mM adenosine triphosphate, pH 8.0). The GST-Rb was captured by binding to glutathione-sepharose bead (Amersham) for 110 min, and the suspension was filtered through a glass fiber filter. After washing the retained beads five time with phosphate-buffered saline containing 0.3% (w/v) Tween-20, the amount of ^33P incorporated was determined by scintillation counting after adding 100 μL scintillant. Relative activity was determined by dividing the amount of radioactivity incorporated in the presence of compound by the amount of radioactivity incorporated in a control experiment containing DMSO alone but no compound. The background radioactivity, determined in an experiment containing 50 mM disodium ethylenediamine tetraacetate in place of compound, was subtracted from all results before calculations.

Cdk2/cyclin E = target: T3, Cdk2/cyclin E (Homo sapiens, UniProt P24941); assay: Biochemical kinase assay Cdk2/cyclin E
T3 construct: made in house; host or cells: Sf9 insect cells
Excerpt: as §1, §2, §3

T1 sequence (P06493 whole entry, species assumed): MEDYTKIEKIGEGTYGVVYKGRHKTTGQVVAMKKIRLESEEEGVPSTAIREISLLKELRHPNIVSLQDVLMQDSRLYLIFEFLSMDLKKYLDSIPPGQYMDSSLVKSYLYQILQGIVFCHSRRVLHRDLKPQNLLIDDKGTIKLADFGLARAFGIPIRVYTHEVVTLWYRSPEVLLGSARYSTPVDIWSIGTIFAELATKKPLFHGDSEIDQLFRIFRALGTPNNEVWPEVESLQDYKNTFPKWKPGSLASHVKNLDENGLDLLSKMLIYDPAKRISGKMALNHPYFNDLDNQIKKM
T1 sequence (P14635 whole entry partner, species assumed): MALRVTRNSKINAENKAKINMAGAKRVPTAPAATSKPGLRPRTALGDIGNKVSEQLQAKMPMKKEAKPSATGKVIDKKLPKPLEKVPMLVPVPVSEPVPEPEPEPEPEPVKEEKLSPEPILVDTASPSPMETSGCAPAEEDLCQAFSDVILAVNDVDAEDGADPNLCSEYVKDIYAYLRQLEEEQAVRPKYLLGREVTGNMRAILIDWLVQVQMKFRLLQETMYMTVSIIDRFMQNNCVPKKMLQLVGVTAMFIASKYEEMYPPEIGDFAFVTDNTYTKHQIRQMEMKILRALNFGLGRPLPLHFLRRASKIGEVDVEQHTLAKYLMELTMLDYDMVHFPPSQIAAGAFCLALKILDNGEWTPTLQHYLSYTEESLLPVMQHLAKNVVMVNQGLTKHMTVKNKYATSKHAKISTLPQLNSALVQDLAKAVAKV

Structure (SMILES)	IC50 (Cdc2/cyclin B)	IC50 (Cdk4/cyclin D1)	IC50 (Cdk2/cyclin E)
O=C(Nc1cccc2c1C(=O)c1c(-c3ccc(CN4CC[C@@H](O)C4)cc3)n[nH]c1-2)NN1CCOCC1 [Compound B8]	< 0.1 µM	–	–
O=C(Nc1cccc2c1C(=O)c1c(-c3ccc(CNCc4cccnc4)cc3)n[nH]c1-2)NN1CCOCC1 [Compound B12]	< 0.1 µM	–	–
O=C(Nc1cccc2c1C(=O)c1c(-c3ccc(CNCCO)cc3)n[nH]c1-2)NN1CCOCC1 [Compound B10]	< 0.1 µM	–	–
CC(C)N1CCN(CCOc2ccc(-c3n[nH]c4c3C(=O)c3c(NC(=O)NN5CCOCC5)cccc3-4)c(F)c2)CC1 [Compound A16]	< 0.1 µM	< 1 µM	< 0.1 µM
CC(C)c1nn(-c2c(Cl)cc(Cl)cc2Cl)c2nc(Cc3ccc(NS(=O)(=O)CCCN4CCCC4)cc3)[nH]c(=O)c12 [Compound A38]	< 1 µM	< 1 µM	< 0.1 µM
Cc1noc(COc2ccc(-c3[nH]nc4c3C(=O)c3c(NC(=O)NN5CCOCC5)cccc3-4)cc2)n1 [Compound A35]	< 0.01 µM	< 0.1 µM	< 0.1 µM
CN1CCN(CCOc2ccc(-c3n[nH]c4c3C(=O)c3c(NC(=O)NN5CCN(C)CC5)cccc3-4)c(F)c2)CC1 [Compound A13]	< 0.1 µM	< 0.1 µM	< 0.1 µM
O=C(Nc1cccc2c1C(=O)c1c(-c3ccc(CN4CCC(O)CC4)cc3)n[nH]c1-2)NN1CCOCC1 [Compound B5]	–	–	< 0.1 µM
COc1ccc(Cc2nc3c(c(C(C)C)nn3-c3c(Cl)cccc3Cl)c(=O)[nH]2)cc1 [Compound A67]	< 0.1 µM	–	< 0.01 µM
CCOC(=O)C1CCN(Cc2ccc(-c3n[nH]c4c3C(=O)c3c(NC(=O)NN5CCOCC5)cccc3-4)cc2)CC1 [Compound B9]	< 0.1 µM	–	–
O=C(Nc1cccc2c1C(=O)c1c(-c3ccc(CN4CCOCC4)cc3)n[nH]c1-2)NN1CCOCC1 [Compound A47]	< 0.1 µM	–	< 0.1 µM
O=C(Nc1cccc2c1C(=O)c1c(-c3ccc(CNCC(O)CO)cc3)n[nH]c1-2)NN1CCOCC1 (stereo not shown) [Compound B11]	< 0.1 µM	–	–
Cc1cc(OCCN2CCCN(C)CC2)ccc1-c1[nH]nc2c1C(=O)c1c(NC(=O)NN3CCN(C)CC3)cccc1-2 [Compound A9]	< 0.01 µM	< 0.1 µM	< 0.1 µM
CN1CCN(Cc2ccc(-c3n[nH]c4c3C(=O)c3c(NC(=O)NN5CCOCC5)cccc3-4)cc2)CC1 [Compound A49]	< 0.1 µM	–	< 0.1 µM
CN(C)C(=O)CN1CCN(NC(=O)Nc2cccc3c2C(=O)c2c-3n[nH]c2-c2ccc(OCCN3CCCC3)cc2)CC1 [Compound A41]	< 1 µM	< 0.1 µM	< 0.1 µM
CC(C)OC(=O)CN1CCN(NC(=O)Nc2cccc3c2C(=O)c2c-3n[nH]c2-c2ccc(OCCN3CCCC3)cc2)CC1 [Compound A40]	< 0.1 µM	< 0.1 µM	< 0.1 µM
CC(C)c1nn(-c2c(Cl)cccc2Cl)c2nc(Cc3ccc(OCCO)cc3)[nH]c(=O)c12 [Compound A59]	< 0.1 µM	< 1 µM	< 0.1 µM
Cc1noc(COc2ccc(-c3[nH]nc4c3C(=O)c3c(NC(=O)NN5CCN(C)CC5)cccc3-4)cc2)n1 [Compound A45]	< 0.01 µM	< 0.1 µM	< 0.1 µM
CN1CCN(NC(=O)Nc2cccc3c2C(=O)c2c-3n[nH]c2-c2ccc(OCCn3cccn3)cc2)CC1 [Compound A17]	< 0.01 µM	< 0.1 µM	< 0.1 µM
O=C(Nc1cccc2c1C(=O)c1c(-c3ccc(CN4CCN(c5ccccn5)CC4)cc3)n[nH]c1-2)NN1CCOCC1 [Compound A82]	–	–	< 0.1 µM
O=C(Nc1cccc2c1C(=O)c1c(-c3ccc(CNCCOCCO)cc3)n[nH]c1-2)NN1CCOCC1 [Compound B4]	–	–	< 0.1 µM
O=C(Nc1cccc2c1C(=O)c1c(-c3ccc(CN4CCC[C@H]4CO)cc3)n[nH]c1-2)NN1CCOCC1 [Compound B6]	–	–	< 0.1 µM
O=C(Nc1cccc2c1C(=O)c1c(-c3ccc(CNCc4ccccn4)cc3)n[nH]c1-2)NN1CCOCC1 [Compound B13]	< 0.1 µM	–	–

Other lines, results leading:

IC50 (Cdc2/cyclin B)	IC50 (Cdk4/cyclin D1)	IC50 (Cdk2/cyclin E)	Structure (SMILES)
< 0.1 µM	< 0.1 µM	< 0.1 µM	COc1cc(-c2[nH]nc3c2C(=O)c2c(NC(=O)NN4CCOCC4)cccc2-3)ccc1OCCN1CCCC1 [Compound A31]
< 0.1 µM	< 0.1 µM	< 0.01 µM	Cc1cc(OCCN2CCCC2)ccc1-c1[nH]nc2c1C(=O)c1c(NC(=O)NN3CCOCC3)cccc1-2 [Compound A29]
< 0.1 µM	< 0.1 µM	< 0.1 µM	Cc1cc(OCCN2CCCCC2)ccc1-c1[nH]nc2c1C(=O)c1c(NC(=O)NN3CCN(C)CC3)cccc1-2 [Compound A8]
< 0.01 µM	< 0.1 µM	< 0.01 µM	CC(C)N1CCN(CCCOc2ccc(-c3[nH]nc4c3C(=O)c3c(NC(=O)NN5CCOCC5)cccc3-4)cc2)CC1 [Compound A20]
< 0.01 µM	< 0.1 µM	< 0.01 µM	Cc1cc(-c2[nH]nc3c2C(=O)c2c(NC(=O)NN4CCOCC4)cccc2-3)ccc1OCCN1CCN(C(C)C)CC1 [Compound A24]
< 0.01 µM	–	< 0.1 µM	O=C(Nc1cccc2c1C(=O)c1c(-c3ccc(CN4CCN(CCO)CC4)cc3)n[nH]c1-2)NN1CCOCC1 [Compound B3]
< 0.1 µM	< 0.1 µM	< 0.1 µM	Cc1cc(OCCn2cccn2)ccc1-c1[nH]nc2c1C(=O)c1c(NC(=O)NN3CCN(C)CC3)cccc1-2 [Compound A11]
< 0.01 µM	< 1 µM	< 0.1 µM	O=C(Nc1cccc2c1C(=O)c1c-2n[nH]c1-c1ccc(O)c(CN2CCOCC2)c1)NN1CCOCC1 [Compound A10]
< 0.1 µM	< 0.1 µM	< 0.01 µM	CC(C)N1CCN(NC(=O)Nc2cccc3c2C(=O)c2c-3n[nH]c2-c2ccc(OCCN3CCCC3)cc2)CC1 [Compound A23]
–	–	< 0.1 µM	O=C(Nc1cccc2c1C(=O)c1c(-c3ccc(CN4CCN(c5cccc(C(F)(F)F)c5)CC4)cc3)n[nH]c1-2)NN1CCOCC1 [Compound B7]
–	–	< 0.01 µM	O=C(Nc1cccc2c1C(=O)c1c(-c3ccc(CNC(CO)CO)cc3)n[nH]c1-2)NN1CCOCC1 [Compound B1]
< 0.1 µM	–	< 0.1 µM	O=C(Nc1cccc2c1C(=O)c1c(-c3ccc(OCc4nnn[nH]4)cc3)n[nH]c1-2)NN1CCOCC1 [Compound A74]
< 0.1 µM	< 0.1 µM	< 0.01 µM	CN(C)C(=O)COc1ccc(-c2[nH]nc3c2C(=O)c2c(NC(=O)NN4CCOCC4)cccc2-3)cc1 [Compound A34]
< 0.01 µM	< 0.1 µM	< 0.1 µM	CN1CCN(NC(=O)Nc2cccc3c2C(=O)c2c-3n[nH]c2-c2ccc(OCC(=O)N3CCCC3)cc2)CC1 [Compound A44]
–	–	< 0.1 µM	O=C(Nc1cccc2c1C(=O)c1c(-c3ccc(CN4CCCC4)cc3)n[nH]c1-2)NN1CCOCC1 [Compound A51]
< 0.1 µM	< 0.1 µM	< 0.01 µM	O=C(O)COc1ccc(-c2n[nH]c3c2C(=O)c2c(NC(=O)NN4CCOCC4)cccc2-3)cc1 [Compound A68]
< 0.1 µM	< 0.1 µM	< 0.1 µM	CC(C)C(N)C(=O)OCCN1CCN(NC(=O)Nc2cccc3c2C(=O)c2c-3n[nH]c2-c2ccc(OCCN3CCCC3)cc2)CC1 (stereo not shown) [Compound A33]
< 0.01 µM	–	< 0.1 µM	O=C(Nc1cccc2c1C(=O)c1c(-c3ccc(CN(CCO)CCO)cc3)n[nH]c1-2)NN1CCOCC1 [Compound B2]
< 0.1 µM	< 0.1 µM	< 0.01 µM	CC(C)N1CCN(CCOc2ccc(-c3n[nH]c4c3C(=O)c3c(NC(=O)NN5CCOCC5)cccc3-4)cc2F)CC1 [Compound A22]
